From PMC4501179, “Tuning properties and dynamic range of type 1 vomeronasal receptors” (Frontiers in Neuroscience, 2015)

Biological target: T1, V1rj3 (Mus musculus, UniProt Q2TBB9)
T1 sequence (Q2TBB9 1-308): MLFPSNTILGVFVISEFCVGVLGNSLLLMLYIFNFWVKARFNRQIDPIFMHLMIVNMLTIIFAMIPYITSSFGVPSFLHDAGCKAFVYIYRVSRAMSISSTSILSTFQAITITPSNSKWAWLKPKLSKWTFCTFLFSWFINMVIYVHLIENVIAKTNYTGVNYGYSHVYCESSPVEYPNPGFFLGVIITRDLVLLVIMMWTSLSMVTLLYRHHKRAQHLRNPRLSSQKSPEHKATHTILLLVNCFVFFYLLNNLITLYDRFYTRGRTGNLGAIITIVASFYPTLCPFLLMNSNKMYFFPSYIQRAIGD
Experiment: GCaMP2 calcium imaging of VNO slices from transgenic mice ectopically expressing V1rj3

SMILES | GCaMP2 calcium imaging of VNO slices from transgenic mice ectopically expressing
C[C@]12CC[C@H]3[C@@H](CC=C4C[C@@H](OS(=O)(=O)O)CC[C@@]43C)[C@@H]1CC[C@@H]2OS(=O)(=O)O [A7864, 5-androsten-3β, 17β-diol-disulfate] | 10^−5 M
C[C@]12CC[C@@H]3c4ccc(O)cc4CC[C@H]3[C@@H]1CC[C@@H]2OS(=O)(=O)O [E1103, 1,3, 5(10)-estratrien-3, 17β-diol 17-sulfate] | 10^−10 M
C[C@]12CC[C@@H]3c4ccc(OS(=O)(=O)O)cc4CC[C@H]3[C@@H]1CC[C@@H]2O [E1100, 17β-estradiol 3-sulfate] | 10^−5 M
C[C@]12CC[C@@H]3c4ccc(OS(=O)(=O)O)cc4CC[C@H]3[C@@H]1CC[C@@H]2OS(=O)(=O)O [E1050, 1, 3, 5(10)-estratrien-3, 17β-diol disulfate] | 10^−10 M
